The record followed here is US20090131481A1, “Transcription Factor Modulating Compounds and Methods of Use Thereof” (Paratek Pharmaceuticals, Inc., published 2009).

Where two headings read alike, the source gives them in different places.

The test system of data set [1] is P. aeruginosa. In words: P. aeruginosa cytotoxicity whole cell assay (J774 cells, LDH release). The conditions noted are these: relative to vehicle treated cells infected with wild type P. aeruginosa. (LDH leaks from cells whose membrane has failed.)
Data set [2] has as its target T1, ExsA (Pseudomonas aeruginosa, UniProt P26993).
T1 construct: made in house
T1 sequence (P26993 1-278): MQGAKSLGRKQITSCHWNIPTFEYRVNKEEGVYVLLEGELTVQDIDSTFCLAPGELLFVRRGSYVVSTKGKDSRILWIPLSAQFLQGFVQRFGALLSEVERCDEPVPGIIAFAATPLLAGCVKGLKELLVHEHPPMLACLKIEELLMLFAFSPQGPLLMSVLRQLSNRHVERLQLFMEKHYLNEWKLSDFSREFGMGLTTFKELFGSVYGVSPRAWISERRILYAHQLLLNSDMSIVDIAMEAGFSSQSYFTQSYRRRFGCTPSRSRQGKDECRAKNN
The data set can be described thus: Chemiluminescence-based ExsA-DNA binding assay. More on the design: species or system P. aeruginosa.

In data set [3] the target is LcrF (VirF) (Yersinia pestis, UniProt P28808). The data set can be described thus: biochemical. The data set is classed as binding, Y. pseudotuberculosis.
For data set [4], the target named is T2, SlyA (Escherichia coli, UniProt P0A8W2).
T2 sequence (P0A8W2 1-144): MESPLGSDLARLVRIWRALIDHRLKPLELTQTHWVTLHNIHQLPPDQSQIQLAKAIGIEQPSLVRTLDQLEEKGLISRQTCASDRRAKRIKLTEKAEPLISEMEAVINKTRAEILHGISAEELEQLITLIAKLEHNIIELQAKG
In words: biochemical. It is filed as binding, E. coli.

Data set [5] relates to uncut plasmid DNA. The data set can be described thus: Qualitative agarose gel DNA intercalation assay. It is filed as binding. The settings on record: 100 ng uncut plasmid DNA, compared with a known DNA intercalator.
Data set [6] addresses T3, SoxS (Escherichia coli, UniProt P0A9E2).
T3 sequence (P0A9E2 1-107): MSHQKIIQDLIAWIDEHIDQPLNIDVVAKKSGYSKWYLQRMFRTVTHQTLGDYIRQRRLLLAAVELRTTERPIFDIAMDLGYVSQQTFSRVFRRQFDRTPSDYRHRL
In words: Electrophoretic mobility shift assay (EMSA) with SoxS. The data set is classed as binding. The conditions noted are these: 50 ug/ml compound, 5 nM SoxS.

Data set [7] concerns the target T3, SoxS. The data set can be described thus: Chemiluminescence-based SoxS-DNA binding assay. The settings on record: for EC50: dose response analysis (footnote c), read-out: in vitro SoxS activity: concentration necessary to inhibit DNA-protein binding by 50% (EC50). More on the design: made in house; species or system E. coli.
The subject of data set [8] is E. coli UPEC strain C189. The data set can be described thus: Ascending pyelonephritis model of infection (Example 3). The data set is classed as in vivo. The conditions noted are these: female CD1 mice, oral dosing at infection and once a day for 4 days, 5-day infection.
The test system of data set [9] is Y. pseudotuberculosis. In words: microbe, parasite or virus in culture. The conditions noted are these: Yersinia pseudotuberculosis, J774, read-out: % Cytotoxicity.
Data set [10] has as its system Y. pseudotuberculosis. The settings on record: in vivo, sc, 25 mg/kg.
Data set [11] has as its system Y. pseudotuberculosis. The conditions noted are these: in vivo, sc, 25 mg/kg. The source holds these as a separate data set.
Setting [12] is: Table 11, subsequent assay, read-out: P. aeruginosa ExsA EC50.
Where [13] appears, read: EC50 for inhibition of LcrF(VirF)-DNA binding.
Where [14] appears, read: Y. pseudotuberculosis VirF EC50.
Where [15] appears, read: read-out: % Inhibition (SoxS binding to DNA).
[16] abbreviates: compound screening concentration of 50 μg/ml (footnote b), read-out: in vitro SoxS activity: percent inhibition of DNA-protein binding.
Setting [17] is: Table 7, cell-free system, read-out: ExsA EC50.

Chain of LcrF (VirF) (P28808 whole entry, looked up): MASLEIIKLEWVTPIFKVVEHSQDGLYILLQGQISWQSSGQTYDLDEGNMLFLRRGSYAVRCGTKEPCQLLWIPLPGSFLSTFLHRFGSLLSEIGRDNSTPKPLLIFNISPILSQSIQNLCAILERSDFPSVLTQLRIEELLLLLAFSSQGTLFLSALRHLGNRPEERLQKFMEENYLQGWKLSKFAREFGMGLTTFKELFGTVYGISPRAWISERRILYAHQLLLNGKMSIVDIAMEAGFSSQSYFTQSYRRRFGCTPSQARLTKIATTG

In the case of `CC(=O)c1ccc(/C=C/C(=O)Nc2ccc(-c3nc4ccc([N+](=O)[O-])cc4n3O)cc2)cc1` [AJ, (E)-3-(4-Acetyl-phenyl)-N-[4-(1-hydroxy-6-nitro-H-benzoimidazol-2-yl)-phenyl]-acrylamide], the “Cytotoxicity at 50 μg/mL Pseudomonas” value in data set [1] is given as “** (reduced P. aeruginosa cytotoxicity below 75% of untreated, wild type levels at 50 mg/mL)”. Further, the EC50 in data set [2] (setting [12]) is under 5 µM; in [3] (setting [13]), 10 to 25 µM; in data set [3] (setting [14]), under 5 µM; in [4] it was over 15.1 µM.
On to `O=[N+]([O-])c1ccc2nc(-c3ccco3)n(O)c2c1` [AU], for which the “ability to intercalate DNA” value in [5] is listed as “not found to intercalate DNA”. Further, the “activity against SoxS in vitro in an EMSA” value (shortened to “activity against SoxS”) in data set [6] is reported as “very active”.
For `NC(=O)c1ccc2nc(-c3ccccc3)n(O)c2c1` [BB], the inhibition (as a rule, the percentage by which the read-out fell short of the control) at 50 µg/mL in data set [7] (setting [15]) was 0 to 29%. In addition, the “activity against SoxS” value in [6] was “moderately active”.
On to `NC(=O)c1ccc2nc(-c3ccco3)n(O)c2c1` [BK], for which the “activity against SoxS” value in [6] is listed as “lacked activity”.
In the case of `CN(C)c1ccc(-c2nc3ccc([N+](=O)[O-])cc3n2O)cc1` [BP], the “ability to intercalate DNA” value in [5] was “not found to intercalate DNA”. Besides, the EC50 in data set [7] is over 5 µM. In data set [7] (setting [15]), the inhibition at 50 µg/mL was over 70%. The “Efficacy (log10 decrease in the CFU/g kidney tissue)” value in [8] is reported as “*** (exhibited a 0-1.0 log decrease in CFU/g)”.
In the case of `O=C(O)Cn1c(-c2nc3ccc([N+](=O)[O-])cc3n2O)nc2ccccc21` [BS], in data set [7], the EC50 lay in the range of 1 to 4.9 µM. Moreover, in [8], the “Efficacy (log10 decrease in the CFU/g kidney tissue)” value is “*** (exhibited a 0-1.0 log decrease in CFU/g)”.
Consider `O=C(O)c1cccc(-c2nc3ccc([N+](=O)[O-])cc3n2O)c1` [BU], for which, in data set [7], the EC50 is over 5 µM. Further, in [8], the “Efficacy (log10 decrease in the CFU/g kidney tissue)” value is listed as “*** (exhibited a 0-1.0 log decrease in CFU/g)”.
Turning to `CC(=O)Nc1ccccc1-c1nc2ccc([N+](=O)[O-])cc2n1O` [BX], in data set [5], the “ability to intercalate DNA” value is listed as “not found to intercalate DNA”. The inhibition at 50 µg/mL in [7] (setting [15]) lay in the range of 30 to 69%.
Consider `COc1ccc(C(=O)Nc2ccc(-c3nc4ccc([N+](=O)[O-])cc4n3O)cc2)cc1` [B], for which the inhibition at 50 µg/mL in data set [7] (setting [16]) was over 70%. In addition, the figures for the EC50 in data set [2] (setting [17]) and in [3] (setting [13]) were over 25 µM and 10 to 25 µM, respectively. In addition, the “Efficacy (log10 decrease in the CFU/g kidney tissue)” value in data set [8] is given as “*** (exhibited a 0-1.0 log decrease in CFU/g)”. The activity at 50 µg/mL in data set [9] was under 75%.
Regarding `CC(C)(C)C(=O)Nc1ccc(-c2nc3ccc([N+](=O)[O-])cc3n2O)cc1` [CK], the inhibition at 25 µg/mL in [7] (compound screening concentration of 25 μg/ml (footnote d), read-out: in vitro SoxS activity: percent inhibition of DNA-protein binding) was over 70%. For the same compound, the “Efficacy (log10 decrease in the CFU/g kidney tissue)” value in data set [8] was “*** (exhibited a 0-1.0 log decrease in CFU/g)”.
Regarding `N#Cc1ccc2nc(-c3ccc(NC(=O)/C=C/c4ccc(F)cc4)cc3)n(O)c2c1` [CM], in data set [1], the “Cytotoxicity at 50 μg/mL Pseudomonas” value is “** (reduced P. aeruginosa cytotoxicity below 75% of untreated, wild type levels at 50 mg/mL)”. The results for the EC50 in data set [2] (setting [12]), in data set [3] (setting [14]) and in data set [4] were under 5 µM, 5.1 to 15 µM and over 15.1 µM, respectively. For the same compound, in data set [9], the activity at 50 µg/mL lay in the range of 75 to 99%.
Take `COc1cc(F)ccc1C(=O)Nc1ccc(-c2nc3ccc([N+](=O)[O-])cc3n2O)cc1` [DE]: in [1], the “Cytotoxicity at 50 μg/mL Pseudomonas” value is “* (reduced P. aeruginosa cytotoxicity to 99-75% of untreated, wild type levels at 50 mg/mL)”. Besides, the EC50 is under 5 µM in data set [2] (setting [12]), under 5 µM in [3] (setting [14]) and over 15.1 µM in data set [4]. The activity at 50 µg/mL in [9] lay in the range of 75 to 99%.
In the case of `CCc1cc(-c2nc3ccc([N+](=O)[O-])cc3n2O)ccc1NC(=O)/C=C/c1ccc(C)cc1` [DP], in data set [1], the “Cytotoxicity at 50 μg/mL Pseudomonas” value is recorded as “* (reduced P. aeruginosa cytotoxicity to 99-75% of untreated, wild type levels at 50 mg/mL)”. Moreover, the results for the EC50 in data set [2] (setting [12]), in data set [3] (setting [14]) and in [4] were 5.1 to 15 µM, under 5 µM and over 15.1 µM, respectively. Moreover, the activity at 50 µg/mL in [9] was under 75%.
On to `O=C(/C=C/c1ccc(F)cc1)Nc1ccc(-c2nc3ncc([N+](=O)[O-])cc3n2O)c(F)c1` [EH], for which, in [1], the “Cytotoxicity at 50 μg/mL Pseudomonas” value is reported as “* (reduced P. aeruginosa cytotoxicity to 99-75% of untreated, wild type levels at 50 mg/mL)”. The EC50 is under 5 µM in data set [2] (setting [12]), under 5 µM in data set [3] (setting [14]) and over 15.1 µM in data set [4]. For the same compound, the activity at 50 µg/mL in data set [9] was under 75%.
On to `CC(=O)c1ccc(C(=O)Nc2ccc(-c3nc4ccc([N+](=O)O)cc4n3O)cc2)cc1` [F], for which the “Log Decrease in CFU/g Lung Tissue” value in data set [10] is given as “** (key: ***: exhibited a 0-1.0 log decrease in the CFU/g of LcrF in lung tissue; **: exhibited a 1.1-2.0 log decrease in the CFU/g of LcrF in lung tissue; --: exhibited no efficacy)”. In addition, in data set [2] (setting [17]), the EC50 lay in the range of 10 to 25 µM. Besides, in data set [11], the “percent of the starting weight of the infected mice” value (shortened to “percent … of the infected mice”) is reported as “approximately 100%” and the “percent survival of infected mice” value stood at 60%. Moreover, the EC50 in data set [3] (setting [13]) is 10 to 25 µM. Moreover, the “Efficacy (log10 decrease in the CFU/g kidney tissue)” value in [8] is given as “** (exhibited a 1.1-2.0 log decrease in CFU/g)”. In addition, in [9], the activity at 50 µg/mL was under 75%.
`Cc1ccc(-c2nc3ccc([N+](=O)[O-])cc3n2O)o1` [GC]: the inhibition at 50 µg/mL in data set [7] (setting [16]) fell in the range of 30 to 69%. In addition, the “Efficacy (log10 decrease in the CFU/g kidney tissue)” value in data set [8] is listed as “** (exhibited a 1.1-2.0 log decrease in CFU/g)”.
For the compound `O=C(Nc1ccc(-c2nc3ccc([N+](=O)O)cc3n2O)cc1)c1ccc(-c2cnco2)cc1` [H], the “Log Decrease in CFU/g Lung Tissue” value in [10] is “*** (key: ***: exhibited a 0-1.0 log decrease in the CFU/g of LcrF in lung tissue; **: exhibited a 1.1-2.0 log decrease in the CFU/g of LcrF in lung tissue; --: exhibited no efficacy)”. Further, the EC50 in [2] (setting [17]) is under 10 µM; in data set [3] (setting [13]), 10 to 25 µM. Moreover, the “percent … of the infected mice” value in data set [11] is reported as “approximately 100%”. Moreover, in data set [11], the “percent survival of infected mice” value is listed as 80%. For the same compound, the “Efficacy (log10 decrease in the CFU/g kidney tissue)” value in data set [8] was “** (exhibited a 1.1-2.0 log decrease in CFU/g)”. In data set [9], the activity at 50 µg/mL is under 75%.
`O=C(/C=C/c1ccc(F)cc1)Nc1ccc(-c2nc3ccc([N+](=O)[O-])cc3n2O)cc1` [M]: the “Log Decrease in CFU/g Lung Tissue” value in data set [10] was “** (key: ***: exhibited a 0-1.0 log decrease in the CFU/g of LcrF in lung tissue; **: exhibited a 1.1-2.0 log decrease in the CFU/g of LcrF in lung tissue; --: exhibited no efficacy)”. Also, in data set [2] (setting [17]), the EC50 is under 10 µM. In data set [11], the “percent … of the infected mice” value is reported as “approximately 120%” and the “percent survival of infected mice” value is on record as 80%. The EC50 in data set [3] (setting [13]) was under 10 µM. Further, the “Efficacy (log10 decrease in the CFU/g kidney tissue)” value in [8] is given as “*** (exhibited a 0-1.0 log decrease in CFU/g)”. In addition, in data set [9], the activity at 50 µg/mL was under 75%.
Turning to `Cc1ccc(/C=C/C(=O)Nc2ccc(-c3nc4ccc([N+](=O)O)cc4n3O)cc2)cc1` [S], the EC50 in [2] (setting [17]) is under 10 µM; in [2] (setting [12]) it was under 5 µM; in data set [3] (setting [13]) it was under 10 µM; in data set [3] (setting [14]), under 5 µM; in [4], over 15.1 µM.
Regarding `O=C(/C=C/c1ccc(F)cc1F)Nc1ccc(-c2nc3ccc([N+](=O)[O-])cc3n2O)cc1` [V], the EC50 was under 10 µM in data set [2] (setting [17]); under 5 µM in data set [2] (setting [12]); under 10 µM in data set [3] (setting [13]); under 5 µM in data set [3] (setting [14]); over 15.1 µM in data set [4].
